Assay results taken from patent US7524981B2, “Phospholipid derivatives and process for the production there” (NOF Corporation, priority 2003, dated 2009).

Test: Salt-tolerant effect: clouding point in aqueous sodium sulfate
Type: physicochemical
Conditions: 1 mass % solution in 5 mass % aqueous solution of sodium sulfate
Protocol: Clouding point of a 1 mass % solution of tetradecaglycerol succinyl distearoylphosphatidylethanolamine obtained in Example 5, which was dissolved in 5 mass % aqueous solution of sodium sulfate, was measured. As a result of the measurement, clouding point could not be detected even when the temperature was raised to 80° C.
Clouding point was measured for monomethylpolyoxyethylenecarbamyl (molecular weight: 2000) distearoylphosphatidylethanolamine obtained in Comparative Synthesis Example 1 in the same manner as used in Example 9.

For “Monomethylpolyoxyethylenecarbamyl (Molecular Weight: 2000) Distearoylphosphatidylethanolamine”, the Clouding point was 50.0 °C.
Substance “Tetradecaglycerol Succinyl Distearoylphosphatidylethanolamine [DSPE-PG(40)]” has a Clouding point greater than 80 °C.
